Patent publication US9775881B2, “Methods of treating mesothelioma by administration of compounds comprising FGFR1 ECD” (Five Prime Therapeutics, Inc., priority 2013, dated 2017)

Key:
Assay type in all cases: in vivo, mouse
SK-Hep-1 xenograft model [1] = assay: SK-Hep-1 xenograft model, FGFR1-ECD.339-Fc alone and with sorafenib; details: 61 days, FGFR1-ECD.339-Fc 15 mg/kg IP twice per week (p=0.0036), sorafenib 20 mg/kg oral five times per week (p<0.0001)
Method: (§1) The cells were implanted subcutaneously over the right flank of the mice at 5×10^6 cells/100 μl/mouse.

HepG2 xenograft model [2] = assay: HepG2 xenograft model, FGFR1-ECD.339-Fc alone and with sorafenib
Method: FGFR1-ECD.339-Fc as a single agent, and in combination with sorafenib, was also tested in a HepG2 xenograft model.

HLF xenograft model = assay: HLF xenograft model, FGFR1-ECD.339-Fc alone and with sorafenib; details: 24 days, FGFR1-ECD.339-Fc 15 mg/kg IP twice per week (p=0.0175), sorafenib 20 mg/kg oral five times per week (p=0.0020)
Method: Six week old female CB17 SCID mice were purchased from Charles River Laboratories (Wilmington, Mass.) and were acclimated for 1 week before the start of the study. […] The cells were cultured for three passages in complete growth medium to expand for implantation. HLF cells were cultured in Dulbecco's Modified Eagle Medium (DMEM) supplemented with 10% Fetal Bovine Serum (FBS) and Antibiotic-Antimycotic solution. Cells were grown at 37° C. in a humidified atmosphere with 5% CO2.
The cells were implanted subcutaneously over the right flank of the mice at 2.5×10^6 cells/100 μl/mouse. Mice were monitored twice weekly following cell implantation for tumor growth. […]
FGFR1-ECD.339-Fc or albumin as a negative control, was dosed at 15 mg/kg via intraperitoneal (IP) injection twice per week. […] Upon initiation of therapy, tumor sizes were measured in each mouse twice weekly. The length and width of each tumor was measured using calipers and the tumor size calculated according to the formula above. […]
Comparisons of tumor volume as a consequence of treatment with FGFR1-ECD.339-Fc and/or sorafenib were determined to be statistically significant if P<0.05. P-values were calculated using unpaired, two-tailed t-test analyses of the calculated tumor volumes on day 24 following initiation of treatment.

ACHN xenograft model = assay: ACHN xenograft model, FGFR1-ECD.339-Fc alone and with pazopanib
Method: as §1

786-0 xenograft model = assay: 786-0 xenograft model, FGFR1-ECD.339-Fc alone and with pazopanib; details: FGFR1-ECD.339-Fc 15 mg/kg IP twice per week, pazopanib 100 mg/kg oral daily
Method: as §1

A498 xenograft model = assay: A498 xenograft model, FGFR1-ECD.339-Fc alone and with pazopanib; details: FGFR1-ECD.339-Fc 15 mg/kg IP twice per week, pazopanib 100 mg/kg oral daily
Method: as §1

Caki-2 xenograft model = assay: Caki-2 xenograft model, FGFR1-ECD.339-Fc alone and with pazopanib; details: FGFR1-ECD.339-Fc 15 mg/kg IP twice per week, pazopanib 100 mg/kg oral daily
Method: as §1

SK-Hep-1 xenograft model [3] = assay: SK-Hep-1 xenograft model, FGFR1-ECD.339-Fc alone and with pazopanib; details: 15 mg/kg IP twice per week, p=0.0076
Method: as §1

HepG2 xenograft model [4] = assay: HepG2 xenograft model, FGFR1-ECD.339-Fc single agent; details: 15 mg/kg IP twice per week
Method: (§2) Six week old female CB17 SCID mice were purchased from Charles River Laboratories (Wilmington, Mass.) and were acclimated for 1 week before the start of the study. Human hepatocellular carcinoma (HCC) cell lines HepG2 and Hep3B were purchased from ATCC (Manassas, Va.) and Huh7 was purchased from JCRB (Japanese Collection of Research Bioresources). The cells were cultured for three passages in complete growth medium to expand for implantation. HepG2 and Hep3B cells were cultured in Dulbecco's Modified Eagle Medium (DMEM) supplemented with 10% Fetal Bovine Serum (FBS), 2 mM L-Glutamine, and Penicillin-Streptomycin antibiotic solution. […]
(§3) When the cultured cells reached 85-90% confluence, cells were harvested and resuspended in cold Ca^2+ and Mg^2+ free phosphate buffered saline (PBS) containing 50% Matrigel. […] Mice were monitored twice weekly following cell implantation for tumor growth.
(§4) FGFR1-ECD.339-Fc (FP-1039) or albumin as a negative control was dosed at 15 mg/kg via intraperitoneal injection twice per week. […] Upon initiation of therapy, tumor sizes were measured in each mouse twice weekly. The length and width of each tumor was measured using calipers and the tumor size calculated according to the formula Tumor size (mm^3)=[…]. […]
(§5) Comparisons of tumor volume as a consequence of treatment with FP-1039 were determined to be statistically significant if P<0.05. […]

Huh7 xenograft model = assay: Huh7 xenograft model, FGFR1-ECD.339-Fc single agent; details: 15 mg/kg IP twice per week
Method: as §2, §3, §4, §5

Hep3B xenograft model = assay: Hep3B xenograft model, FGFR1-ECD.339-Fc single agent; details: 15 mg/kg IP twice per week
Method: as §2, §3, §4, §5

NCI-H226 xenograft = assay: NCI-H226 mesothelioma tumor xenograft model, dose response; details: SCID mice, day 29
Method: Seven week old female SCID mice (Taconic, Hudson, N.Y.) were implanted subcutaneously with NCI-H226 cells (ATCC, Manassas, Va.) at 5×10^6 cells/mouse and tumor-bearing mice were randomized into 4 groups (n=8/group) when tumors reached ˜176-277 mm^3 in size. Mice were treated with FGFR1-ECD.339-Fc at three different concentrations (1.024, 5.12 or 25.6 mg/kg) three times a week (t.i.w.) for 29 days. Tumor size and body weights were measured twice a week.

MSTO-211H xenograft = assay: MSTO-211H mesothelioma tumor xenograft model, dose response; details: SCID mice, day 29
Method: Five to six week old female SCID mice were implanted subcutaneously with MSTO-211H cells (ATCC, Manassas, Va.) at 5×10^6 cells/mouse and tumor-bearing mice were randomized into 3 groups (n=10/group) when tumors reached ˜150-225 mm^3 in size. Mice were treated with FGFR1-ECD.339-Fc at two different concentrations (5.12 or 25.6 mg/kg) three times a week (t.i.w.) for 29 days. Tumor size and body weights were measured twice a week.

[5] = system: NCI-H226 (mesothelioma) xenograft; assay: Blood vessel density by MECA-32 IHC in NCI-H226 xenograft tumors; details: NCI-H226 tumors harvested day 30; 1.024, 5.12 or 25.6 mg/kg t.i.w. for 29 days
Method: Endothelial cell immunohistochemical (IHC) staining using a rat anti-mouse pan-endothelial cell antigen antibody (MECA-32; BD Biosciences, Franklin Lakes, N.J.) was performed on tumors from a NCI-H226 (mesothelioma) xenograft study. Tumor-bearing mice were treated with either vehicle (0.9% saline) or increasing doses of FGFR1-ECD.339-Fc (1.024, 5.12, or 25.6 mg/kg) three times a week (t.i.w.) for 29 days, as described above. Tumors were harvested on day 30. Quantification of MECA-32 IHC staining was analyzed by measuring the number of blood vessels/tissue area.

Molecule | response of xenograft model to single therapy (tumor volume) (SK-Hep-1 xenograft model [1]) | single agent effect on tumor growth (HepG2 xenograft model [2]) | response of xenograft model to single therapy (tumor volume) (HLF xenograft model) | tumor growth inhibition (ACHN xenograft model; CB17 SCID mice, 15 mg/kg IP twice per week, day 63, p<0.0001) [%] | response of xenograft model to single therapy (tumor volume) (ACHN xenograft model; FGFR1-ECD.339-Fc 15 mg/kg IP twice per week) | response of xenograft model to single therapy (tumor volume) (786-0 xenograft model) | response of xenograft model to single therapy (tumor volume) (A498 xenograft model) | response of xenograft model to single therapy (tumor volume) (Caki-2 xenograft model) | response of xenograft model to single therapy (tumor volume) (SK-Hep-1 xenograft model [3]) | single agent efficacy (tumor volume) (HepG2 xenograft model [4]) | single agent efficacy (tumor volume) (Huh7 xenograft model) | single agent efficacy (tumor volume) (Hep3B xenograft model) | tumor growth inhibition (TGI) (NCI-H226 xenograft; 1.024 mg/kg three times a week) [%] | tumor growth inhibition (TGI) (NCI-H226 xenograft; 5.12 mg/kg three times a week) [%] | tumor growth inhibition (TGI) (NCI-H226 xenograft; 25.6 mg/kg three times a week) [%] | tumor growth inhibition (TGI) (MSTO-211H xenograft; 5.12 mg/kg three times a week) [%] | tumor growth inhibition (TGI) (MSTO-211H xenograft; 25.6 mg/kg three times a week) [%] | blood vessel density (MECA-32 IHC), inner region [5] | blood vessel density (MECA-32 IHC), outer region [5] | blood vessel density (MECA-32 IHC), outer+inner region (whole tumor mass) [5]
CNC(=O)c1cc(Oc2ccc(NC(=O)Nc3ccc(Cl)c(C(F)(F)F)c3)cc2)ccn1 [sorafenib, reference compound] | responded | inhibits tumor growth | responded | – | – | – | – | – | – | – | – | – | – | – | – | – | – | – | – | –
FGFR1-ECD.339-Fc: human FGFR1 extracellular domain ending at amino acid 339 fused to Fc; SEQ ID NO: 6 (mature form) or SEQ ID NO: 5 (with signal peptide) | responded | not effective as a single agent | responded | 51 | responded | did not respond | little response | little response | responded | no single agent efficacy | no single agent efficacy | no single agent efficacy | 16.2 | 56.8 | 77.8 | 20.3 | 50.1 | no significant differences | dose-dependent and a statistically-significant reduction | dose-dependent and a statistically-significant reduction
